These results are taken from US10201568B2, “Brain, spinal, and nerve injury treatment” (EUSTRALIS PHARMACEUTICALS LIMITED, priority 2000, dated 2019).

Structures are written as SMILES.

Data set [1] deals with brain injured animals. Kind of data set: Barnes Circular Maze, cognitive outcome after brain injury. Type of data set: in vivo. The text has this:
(§1) A number of commercially synthesized substance P receptor antagonists are currently available from standard scientific chemical suppliers, as is apparent form Tables 1, 2, and 3. We chose to use the compound N-acetyl-L-tryptophan based on its low lipid solubility that limits its ability to naturally cross the blood brain barrier and the fact that it is relatively inexpensive.

Data set [2] deals with brain injured animals. Kind of data set: otarod test, motor outcome after brain injury. The data set is classed as in vivo.
Text: as §1

Data set [3] deals with brain injured animals. The experiment in a line: brain water accumulation (cerebral oedema) after injury. Type of data set: in vivo. The note with it: at 24 hours after injury, compared to vehicle treated controls. On the procedure:
(§2) This was consistent with the observation that N-acetyl-L-tryptophan reduced brain penetration of Evans blue at 5 hours after injury: the time associated with maximum blood brain barrier permeability and reduced vasogenic oedema formation.

Data set [4] concerns blood brain barrier permeability. Kind of data set: brain penetration of Evans blue after injury. Particulars: at 5 hours after injury (time of maximum blood brain barrier permeability). Type of data set: in vivo. On the procedure: as §2
The conditions of data set [5]: limits its ability to naturally cross the blood brain barrier; cited from earlier work.
The mark [6] stands for this setting: intravenous 246 mg/kg (saline vehicle) at 30 minutes after brain injury, apparent at 24 hours, persisted for 14 day assessment period, vs vehicle.

As for `CC(=O)N[C@@H](Cc1c[nH]c2ccccc12)C(=O)O` [N-acetyl-L-tryptophan], the “cognitive outcome of brain injured animals” value in the data set with brain injured animals [1] (24.6 mg/kg) is on record as “significantly improved”. The “cognitive outcome as assessed by the Barnes Circular Maze” value in the data set on brain injured animals [1] (setting [6]) was “significant improvement”. The motor outcome with brain injured animals [2] (24.6 mg/kg) is given as “less of a beneficial effect”. Moreover, the “motor outcome as assessed by the otarod test” value in the data set on brain injured animals [2] (setting [6]) was “significant improvement”. The “brain water accumulation (i.e. cerebral oedema)” value in the data set with brain injured animals [3] was “significant reduction”. In data set [4], the “brain penetration of Evans blue” value is listed as “reduced”. Besides, the lipid solubility result in data set [5] is listed as “low”.
